Data set [1] concerns human hepatoma (QGY). Briefly: Growth of human hepatoma (QGY) in nude mice. Type of data set: in vivo, human (nude mouse). As to conditions: 30 mg/kg ip daily 7 days. On the procedure: Hepatoma (QGY) tissues growing luxuriantly were homogenized in physical saline (1:4) and prepared as a suspension. Each nude mouse was inoculated subcutaneously with 0.2 ml of the suspension at its armpit. The nude mice were divided into groups at random the next day. The doses of NLEJ emulsion were 25 ml/kg, 12.5 ml/kg and 6.25 ml/kg. The emulsion was administrated intravenously at the tail of the nude mouse every day for 10 days. One group of mice were administered with cyclophosphamide (CTX) of a dose of 30 mg/kg intraperitoneally every day for 7 days. The nude mice of the control group were administered with a similar emulsion just absent the NLEJ (blank emulsion) at a dose of 25 ml/kg intravenously at the tail of the nude mouse every day for 10 days. Tumor tissues of all nude mice were sampled and weighed 30 days after inoculating.

Data set [2] deals with melanoma (B16). Briefly: Metastasis of melanoma (B16) in lung in vivo. On the set-up: species or system C57BL/6 mouse. The settings on record: 100 mg/kg ip × 2 (3, 5). Here is the method:
Melanoma B16 tissues growing at logarithmic stage were digested with 0.15% trypsin, and 0.2 ml suspension of 2.5×10^5 cells/ml in RPMI 1640 medium from the tissues was inoculated intravenously into the tail of each C57BL/6 mouse. Mice were divided into groups at random 3 days after inoculating and were administered different emulsions. Mice were killed 21 days after inoculating, and metastasized colonies of melanoma in mouse's lung were counted to calculate the inhibition ratio and compare the different effects of different administrations of NLEJ emulsion on metastasis of malanoma in lung. 100 mg/kg cyclophosphamide (CTX) was administered in the same way to compare with NLEJ emulsion.

The test system of data set [3] is Walaer carcinosarcoma (solid) W256. The experiment in a line: Anti-tumor effect on Walaer carcinosarcoma (solid) W256 in vivo. Also noted: species or system rat. On the procedure:
Ascites Walaer carcinosarcoma (solid) W256 tissues growing luxuriantly were digested to be a cell suspension. The cell suspension was regulated to have a 1-2×10^7 /ml cell density. 0.2 ml of the suspension was inoculated under the skin of armpit of each rat. The rats were divided into groups at random the next day and were administered with doses of NLEJ emulsion of 20 ml/kg, 10 ml/kg, 5 ml/kg iv×10 (qd), and doses of […], the doses of cyclophosphamide were 30 mg/kg iv×7 (qd), mg/kg iv×2 (third and fifth). Tumor tissues from all treatments were sampled and weighed to calculate tumor inhibition ratios 14 days after inoculating.

For data set [4], the system named is sarcoma (S-180). The experiment in a line: Anti-tumor effect on sarcoma (S-180) in vivo. On the set-up: species or system mice. On the procedure:
Sarcoma (S-180) tissues growing luxuriantly were prepared to be a cell suspension with physical saline 1:3(w/v). Mice were divided into groups at random the next day and were administered with doses of NLEJ emulsion of 25 ml/kg iv×7 (qd), doses of cyclophosphamide of 30 mg/kg ip×2 (second and fourth), doses of mitoxantrone (DHAD) of 2 mg/kg ip×2 (second and fourth), and doses of mitomycin of 1.5 mg/kg ip×2 (second and fourth). Tumor tissues from all treatments were sampled and weighed to calculate tumor inhibition ratios 14 days after inoculating.

Data set [5] has as its system leukocyte. Briefly: Protection on decrease of leukocyte induced by cyclophosphamide chemotherapy. The class given is in vivo, Swiss mice. The settings on record: CTX 45 mg/kg ip × 1, 5, 9. On the procedure: (§1) 80 Swiss mice were divided into eight groups at random, were administered with cyclophosphamide at 45 mg/kg ip×3 (second, sixth and tenth), or harringtonine (HRTN) at 1 mg/kg ip×3 (second, sixth and tenth). To each of two of the medicine groups were administered NLEJ emulsion at the same time, at doses of 2.4 ml/kg and 6.25 ml/kg iv×7 (every day). At the beginning and on the fourth day of each administration, blood was sampled from the angle of each mouse's eye, and leukocytes of the blood were counted.

Data set [6] deals with human small cell lung cancer (SPC). Briefly: Growth of human small cell lung cancer (SPC) in nude mice. The class given is in vivo, human (nude mouse). The settings on record: 40 mg/kg iv×10 (qd). On the procedure: SPC tumor tissues growing luxuriantly were cut into pieces of 2 mm, one of the pieces was inoculated under the skin of the armpit of each nude mouse. Nude mice were divided into groups at random the next day and one group was administered with the NLEJ emulsion at a dose of 25 ml/kg iv×10 (qd), one group of mice was administered with dacarbazine (DTIC) at a dose of 40 mg/kg iv×10 (qd), and the nude mice of the control group were administered with blank emulsion at a dose of 25 ml/kg iv×10 (qd). Tumor tissues of all nude mice were sampled and weighed 30 days after inoculating.

Data set [7] concerns leukocyte. The experiment in a line: Protection on decrease of leukocyte induced by harringtonine chemotherapy. Type of data set: in vivo, Swiss mice. As to conditions: HRTN 1 mg/kg ip × 1, 5, 9. Here is the method:
as §1

Data set [8] deals with mouse Ehrlich ascites tumor. The settings on record: cited from earlier work.

Regarding `O=P1(N(CCCl)CCCl)NCCCO1` (stereo not shown) [CTX, cyclophosphamide], the Inhibition (%) in data set [1] is 91.00%; in data set [2] (Table 4), 95.90%; in data set [2] (Table 5), 98.67%; in data set [2] (Table 6), 100%; in data set [3] (10 mg iv × 2), 38.58%; in data set [3] (30 mg iv × 7) it was 88.13%. Also, in data set [4] (30 mg/kg ip × 2 (1, 3)), the “Inhibition (%)” value came to 39.4%. In addition, the Tumor in data set [1] is 0.28 ± 0.08 g. Moreover, the “Colony No.” value was 18.80 ± 8.50 in data set [2] (Table 4), 8.0 ± 6.22 in data set [2] (Table 5) and 0 in data set [2] (Table 6). Also, the “Weight (tumor)” value in data set [3] (10 mg iv × 2) is listed as 2.07 ± 1.11 g; in data set [3] (30 mg iv × 7), 0.4 ± 0.15 g. Also, the Leucocyte number in data set [5] (time 0) is 62 × 100/mm^3; in data set [5] (time 3) it was 49 × 100/mm^3; in data set [5] (time 6) it was 45 × 100/mm^3; in data set [5] (time 9), 41 × 100/mm^3; in data set [5] (time 12) it was 41 × 100/mm^3; in data set [5] (time 15) it was 42 × 100/mm^3. For the same compound, the figures for the Leucocyte number in data set [5] (time 18), in data set [5] (time 21) and in data set [5] (time 24) were 45 × 100/mm^3, 47 × 100/mm^3 and 49 × 100/mm^3, respectively.

`O=C1c2c(O)ccc(O)c2C(=O)c2c(NCCNCCO)ccc(NCCNCCO)c21` [DHAD, mitoxantrone]: the “Inhibition (%)” value in data set [4] (2 mg/kg ip × 2 (1, 3)) is on record as 50%.

In data set [6], `CN(C)/N=N/c1[nH]cnc1C(N)=O` [DTIC, dacarbazine] gave an Inhibition (%) of 94.94% and a Tumor of 0.18 ± 0.04.

`COC(=O)C[C@](O)(CCC(C)(C)O)C(=O)O[C@@H]1C(OC)=C[C@]23CCCN2CCc2cc4c(cc2[C@H]13)OCO4` [HRTN, harringtonine]: the Leucocyte number in data set [7] (time 0) was 60 × 100/mm^3; in data set [7] (time 3), 75 × 100/mm^3; in data set [7] (time 6), 65 × 100/mm^3; in data set [7] (time 9) it was 50 × 100/mm^3; in data set [7] (time 12), 44 × 100/mm^3; in data set [7] (time 15) it was 43 × 100/mm^3. For the same compound, the Leucocyte number was 49 × 100/mm^3 in data set [7] (time 18), 53 × 100/mm^3 in data set [7] (time 21) and 56 × 100/mm^3 in data set [7] (time 24).

On to `CO[C@@]12[C@H](COC(N)=O)C3=C(C(=O)C(C)=C(N)C3=O)N1C[C@@H]1N[C@@H]12` [Mitomycin, mitomycin], for which the “Inhibition (%)” value in data set [4] (1.5 mg/kg ip × 2 (1, 3)) worked out at 39.4%.

On to `CCCCCC/C=C\CCCCCCCC(=O)O[C@H](C)[C@H](C)OC(=O)CCCCCCCCC/C=C/CCCCCC` [coixenolide], for which, in data set [8] (Ukita 1961), the “Growth of mouse Ehrlich ascites tumor” value is “inhibit the growth”. Also, in data set [8] (pure compound), the Anti-tumor activity result is “strong anti-tumor activity”.

These data come from patent US5444089A, “Neutral lipids from endosperm of Job's tears” (Li; Da P., priority 1992, dated 1995).
